Results as given in PubChem BioAssay AID1259407 (Chemical Carcinogenesis Research Information System (CCRIS), 2018).
Activity calls are given as the source filed them. The rule behind the calls is not given here.

System: CCRIS mutagenicity, Ames/micronucleus/aberration tests
Assay: CCRIS mutagenicity studies

Structure (SMILES): N#CC(Cl)(Cl)Cl
- mutagenic call (Test System: AMES SALMONELLA TYPHIMURIUM, Strain/Indicator: TA98, Metabolic Activation: NONE, Method: FLUCTUATION (MICROTITER)): inactive; negative
- mutagenic call (Test System: AMES SALMONELLA TYPHIMURIUM, Strain/Indicator: TA98, Metabolic Activation: NONE, Method: STANDARD PLATE): inactive; negative
- mutagenic call (Test System: AMES SALMONELLA TYPHIMURIUM, Strain/Indicator: TA98, Metabolic Activation: RAT LIVER S-9, AROCLOR 1254, Method: FLUCTUATION (MICROTITER)): inactive; negative
- mutagenic call (Test System: AMES SALMONELLA TYPHIMURIUM, Strain/Indicator: TA98, Metabolic Activation: RAT, LIVER, S-9, AROCLOR 1254, Method: STANDARD PLATE): inactive; negative
- mutagenic call (Test System: AMES SALMONELLA TYPHIMURIUM, Strain/Indicator: TA100, Metabolic Activation: NONE, Method: FLUCTUATION TEST): active; positive
- mutagenic call (Test System: AMES SALMONELLA TYPHIMURIUM, Strain/Indicator: TA100, Metabolic Activation: NONE, Method: STANDARD PLATE): inactive; negative
- mutagenic call (Test System: AMES SALMONELLA TYPHIMURIUM, Strain/Indicator: TA100, Metabolic Activation: RAT, LIVER, S-9, AROCLOR 1254, Method: FLUCTUATION TEST): inactive; negative
- mutagenic call (Test System: AMES SALMONELLA TYPHIMURIUM, Strain/Indicator: TA100, Metabolic Activation: RAT, LIVER, S-9, AROCLOR 1254, Method: STANDARD PLATE): inactive; negative
- mutagenic call (Test System: AMES SALMONELLA TYPHIMURIUM, Strain/Indicator: TA1535, Metabolic Activation: NONE, Method: STANDARD PLATE): inactive; negative
- mutagenic call (Test System: AMES SALMONELLA TYPHIMURIUM, Strain/Indicator: TA1535, Metabolic Activation: RAT, LIVER, S-9, AROCLOR 1254, Method: STANDARD PLATE): inactive; negative
- mutagenic call (Test System: AMES SALMONELLA TYPHIMURIUM, Strain/Indicator: TA1537, Metabolic Activation: NONE, Method: FLUCTUATION (MICROTITER)): inactive; negative
- mutagenic call (Test System: AMES SALMONELLA TYPHIMURIUM, Strain/Indicator: TA1537, Metabolic Activation: RAT LIVER S-9, AROCLOR 1254, Method: FLUCTUATION (MICROTITER)): inactive; negative
- mutagenic call (Test System: AMES SALMONELLA TYPHIMURIUM, Strain/Indicator: TA7001, Metabolic Activation: NONE, Method: FLUCTUATION (MICROTITER)): inactive; negative
- mutagenic call (Test System: AMES SALMONELLA TYPHIMURIUM, Strain/Indicator: TA7001, Metabolic Activation: RAT LIVER S-9, AROCLOR 1254, Method: FLUCTUATION (MICROTITER)): inactive; negative
- mutagenic call (Test System: AMES SALMONELLA TYPHIMURIUM, Strain/Indicator: TA7002, Metabolic Activation: NONE, Method: FLUCTUATION (MICROTITER)): inactive; negative
- mutagenic call (Test System: AMES SALMONELLA TYPHIMURIUM, Strain/Indicator: TA7002, Metabolic Activation: RAT LIVER S-9, AROCLOR 1254, Method: FLUCTUATION (MICROTITER)): inactive; negative
- mutagenic call (Test System: AMES SALMONELLA TYPHIMURIUM, Strain/Indicator: TA7003, Metabolic Activation: NONE, Method: FLUCTUATION (MICROTITER)): inactive; negative
- mutagenic call (Test System: AMES SALMONELLA TYPHIMURIUM, Strain/Indicator: TA7003, Metabolic Activation: RAT LIVER S-9, AROCLOR 1254, Method: FLUCTUATION (MICROTITER)): inactive; negative
- mutagenic call (Test System: AMES SALMONELLA TYPHIMURIUM, Strain/Indicator: TA7004, Metabolic Activation: NONE, Method: FLUCTUATION (MICROTITER)): inactive; negative
- mutagenic call (Test System: AMES SALMONELLA TYPHIMURIUM, Strain/Indicator: TA7004, Metabolic Activation: RAT LIVER S-9, AROCLOR 1254, Method: FLUCTUATION (MICROTITER)): inactive; negative
- mutagenic call (Test System: AMES SALMONELLA TYPHIMURIUM, Strain/Indicator: TA7005, Metabolic Activation: NONE, Method: FLUCTUATION (MICROTITER)): inactive; negative
- mutagenic call (Test System: AMES SALMONELLA TYPHIMURIUM, Strain/Indicator: TA7005, Metabolic Activation: RAT LIVER S-9, AROCLOR 1254, Method: FLUCTUATION (MICROTITER)): inactive; negative
- mutagenic call (Test System: AMES SALMONELLA TYPHIMURIUM, Strain/Indicator: TA7006, Metabolic Activation: NONE, Method: FLUCTUATION (MICROTITER)): inactive; negative
- mutagenic call (Test System: AMES SALMONELLA TYPHIMURIUM, Strain/Indicator: TA7006, Metabolic Activation: RAT LIVER S-9, AROCLOR 1254, Method: FLUCTUATION (MICROTITER)): inactive; negative

Structure (SMILES): NN=C(N)N
- mutagenic call (Test System: AMES SALMONELLA TYPHIMURIUM, Strain/Indicator: TA98, Metabolic Activation: NONE, Method: PREINCUBATION): inactive; negative
- mutagenic call (Test System: AMES SALMONELLA TYPHIMURIUM, Strain/Indicator: TA98, Metabolic Activation: RAT LIVER S-9, PHENOBARBITAL AND BETA-NAPHTHOFLAVONE, Method: PREINCUBATION): inactive; negative
- mutagenic call (Test System: AMES SALMONELLA TYPHIMURIUM, Strain/Indicator: TA100, Metabolic Activation: NONE, Method: PREINCUBATION): inactive; negative
- mutagenic call (Test System: AMES SALMONELLA TYPHIMURIUM, Strain/Indicator: TA100, Metabolic Activation: RAT LIVER S-9, PHENOBARBITAL AND BETA-NAPHTHOFLAVONE, Method: PREINCUBATION): inactive; negative
- mutagenic call (Test System: AMES SALMONELLA TYPHIMURIUM, Strain/Indicator: TA1535, Metabolic Activation: NONE, Method: PREINCUBATION): inactive; negative
- mutagenic call (Test System: AMES SALMONELLA TYPHIMURIUM, Strain/Indicator: TA1535, Metabolic Activation: RAT LIVER S-9, PHENOBARBITAL AND BETA-NAPHTHOFLAVONE, Method: PREINCUBATION): inactive; negative
- mutagenic call (Test System: AMES SALMONELLA TYPHIMURIUM, Strain/Indicator: TA1537, Metabolic Activation: NONE, Method: PREINCUBATION): inactive; negative
- mutagenic call (Test System: AMES SALMONELLA TYPHIMURIUM, Strain/Indicator: TA1537, Metabolic Activation: RAT LIVER S-9, PHENOBARBITAL AND BETA-NAPHTHOFLAVONE, Method: PREINCUBATION): inactive; negative
- mutagenic call (Test System: E.COLI, Strain/Indicator: WP2UVRA/PKM101, Metabolic Activation: NONE, Method: PREINCUBATION): inactive; negative
- mutagenic call (Test System: E.COLI, Strain/Indicator: WP2UVRA/PKM101, Metabolic Activation: RAT LIVER S-9, PHENOBARBITAL AND BETA-NAPHTHOFLAVONE, Method: PREINCUBATION): inactive; negative

Structure (SMILES): CC(C)(Oc1ccc(C2CCCc3ccccc32)cc1)C(=O)O (stereo unspecified)
- mutagenic call (Test System: AMES SALMONELLA TYPHIMURIUM, Strain/Indicator: TA98, Metabolic Activation: NONE): inactive; negative
- mutagenic call (Test System: AMES SALMONELLA TYPHIMURIUM, Strain/Indicator: TA98, Metabolic Activation: RAT, LIVER, S-9, AROCLOR 1254): inactive; negative
- mutagenic call (Test System: AMES SALMONELLA TYPHIMURIUM, Strain/Indicator: TA102, Metabolic Activation: NONE): inactive; negative
- mutagenic call (Test System: AMES SALMONELLA TYPHIMURIUM, Strain/Indicator: TA102, Metabolic Activation: RAT, LIVER, S-9, AROCLOR 1254): inactive; negative
- mutagenic call (Test System: AMES SALMONELLA TYPHIMURIUM, Strain/Indicator: TA104, Metabolic Activation: NONE): inactive; negative
- mutagenic call (Test System: AMES SALMONELLA TYPHIMURIUM, Strain/Indicator: TA104, Metabolic Activation: RAT, LIVER, S-9, AROCLOR 1254): inactive; negative
- mutagenic call (Test System: UDS RAT HEPATOCYTES, Strain/Indicator: THY INCORP, Metabolic Activation: NONE, Method: LIQUID SCINTILLATION COUNTING): inactive; negative
